Where two headings read alike, the source gives them in different places.
Legend:
mixed hardwoods (MXDSP) = assay: Test 13 field trial, postemergence, brush weeds; assay type: in vivo, Nyssa sylvatica, Acer rubrum, Liquidambar styraciflua; details: 56 DAA; g a.i./ha: Cpd 2 250; Fosamine-ammonium 6700
Source text: (§1) Plots were established in non-crop land and were 6.1 m long by 3.0 m wide. […] Treatments were applied postemergence to the brush weeds using a backpack sprayer delivering a spray volume of 468 L/ha using a pressure of 241 kPa. […] All treatments also included a surfactant. […] Results are the means of the three replicates.

oak species (QUESS) = assay: Test 13 field trial, postemergence, brush weeds; assay type: in vivo, Quercus L. spp.; details: 56 DAA; g a.i./ha: Cpd 2 250; Fosamine-ammonium 6700
Source text: as §1

[1] = test system: common lambsquarters (CHEAL); assay: Test 9 field trial, emerged weeds before corn planting; assay type: in vivo, Chenopodium album; details: 57 DAA; g a.i./ha: Cpd 2 100, Glyphosate 1540, Paraquat 1150
Protocol: (§2) Corn seeds (hybrid ‘Pioneer 34M91 RR’) were planted in mid spring season, about 3.8 cm deep in a silty clay loam soil having a pH of 6.7. Plots were 9.1 m long by 3.0 m. The field was managed using no-till practices. […] Compound 2 and paraquat treatments, alone and in combination, also included a surfactant. Glyphosate, alone and with Compound 2, included ammonium sulfate in the treatment mixture. […] The effects on the weeds in the treated plots and untreated control plots were recorded 7, 14, 23, 30 and 57 days after application. Most of the weed species could not be evaluated at every timing. Corn response was only evaluated 57 days after application. […] Results are the means of the three replicates.

common dandelion (TAROF) = assay: as above; assay type: in vivo, Taraxacum officinale; details: g a.i./ha: Cpd 2 100, Glyphosate 1540, Paraquat 1150
Protocol: as §2

corn (ZEAMD) [2] = assay: as above; assay type: in vivo, Zea mays ssp. indentata; details: 57 DAA; g a.i./ha: Cpd 2 100, Glyphosate 1540, Paraquat 1150
Protocol: as §2

bushy wallflower (ERYRE) = assay: as above; assay type: in vivo, Erysimum repandum; details: g a.i./ha: Cpd 2 100, Glyphosate 1540, Paraquat 1150
Protocol: as §2

[3] = test system: henbit deadnettle (LAMAM); assay: as above; assay type: in vivo, Lamium amplexicaule; details: g a.i./ha: Cpd 2 100, Glyphosate 1540, Paraquat 1150
Protocol: as §2

giant foxtail (SETFA) = assay: Test 3 field trial, emerged weeds before corn planting; assay type: in vivo, Setaria faberi; details: 68 DAA; Cpd 2 100, glyphosate 1540, paraquat 1150 g a.i./ha, alone or combined
Source text: (§3) Corn seeds (hybrid ‘Pioneer 33J56’) were planted in early spring season, 3.8 cm deep in a silt loam soil having 2.4% organic matter and a pH of 6. Plots were 6.1 m long by 2.7 m wide with rows spaced 91.4 cm apart. The field was managed using no-till practices. […] Compound 2 and paraquat treatments, alone and in combination, also included a surfactant. Glyphosate, alone and with Compound 2, included ammonium sulfate in the treatment mixture. […] The effects on the weeds in the treated plots and untreated control plots were recorded 30, 42, 46 and 68 days after application. Most of the weed species could not be evaluated at every timing. Corn response was not evaluated because the growth was highly variable depending on the efficacy of the weed control treatments. […] Results are the means of the three replicates.

[4] = test system: smallflower buttercup (RANAB); assay: Test 9 field trial, emerged weeds before corn planting; assay type: in vivo, Ranunculus abortivus; details: g a.i./ha: Cpd 2 100, Glyphosate 1540, Paraquat 1150
Protocol: as §2

[5] = test system: Virginia pepperweed (LEPVI); assay: Test 3 field trial, emerged weeds before corn planting; assay type: in vivo, Lepidium virginicum; details: Cpd 2 100, glyphosate 1540, paraquat 1150 g a.i./ha, alone or combined
Source text: as §3

red deadnettle (LAMPU) [6] = assay: as above; assay type: in vivo, Lamium purpureum; details: Cpd 2 100, glyphosate 1540, paraquat 1150 g a.i./ha, alone or combined
Source text: as §3

[7] = test system: common lambsquarters (CHEAL); assay: as above; assay type: in vivo, Chenopodium album; details: 68 DAA; Cpd 2 100, glyphosate 1540, paraquat 1150 g a.i./ha, alone or combined
Source text: as §3

giant ragweed (AMBTR) = assay: Test 9 field trial, emerged weeds before corn planting; assay type: in vivo, Ambrosia trifida; details: g a.i./ha: Cpd 2 100, Glyphosate 1540, Paraquat 1150
Protocol: as §2

Canada horseweed (ERICA) = assay: as above; assay type: in vivo, Erigeron canadensis; details: g a.i./ha: Cpd 2 100, Glyphosate 1540, Paraquat 1150
Protocol: as §2

curly dock (RUMCR) = assay: Test 3 field trial, emerged weeds before corn planting; assay type: in vivo, Rumex crispus; details: Cpd 2 100, glyphosate 1540, paraquat 1150 g a.i./ha, alone or combined
Source text: as §3

red deadnettle (LAMPU) [8] = assay: Test 9 field trial, emerged weeds before corn planting; assay type: in vivo, Lamium purpureum; details: g a.i./ha: Cpd 2 100, Glyphosate 1540, Paraquat 1150
Protocol: as §2

common chickweed (STEME) [9] = assay: as above; assay type: in vivo, Stellaria media; details: g a.i./ha: Cpd 2 100, Glyphosate 1540, Paraquat 1150
Protocol: as §2

common chickweed (STEME) [10] = assay: Test 3 field trial, emerged weeds before corn planting; assay type: in vivo, Stellaria media; details: Cpd 2 100, glyphosate 1540, paraquat 1150 g a.i./ha, alone or combined
Source text: as §3

shepherd's purse (CAPBP) = assay: Test 9 field trial, emerged weeds before corn planting; assay type: in vivo, Capsella bursa-pastoris; details: g a.i./ha: Cpd 2 100, Glyphosate 1540, Paraquat 1150
Protocol: as §2

prickly lettuce (LACSE) = assay: as above; assay type: in vivo, Lactuca serriola; details: g a.i./ha: Cpd 2 100, Glyphosate 1540, Paraquat 1150
Protocol: as §2

corn (ZEAMD) [11] = test system: corn (ZEAMD); set-up: species or system Zea mays ssp. indentata; details: in vivo
Protocol: (§4) A greenhouse test was conducted to evaluate the effects of Compounds 1 and 2, applied preemergence, on the plant species corn (ZEAMD, Zea mays ssp. indentata) and wheat (TRZAW, Triticum aestivum L.) grown from seed treated with and without naphthalic anhydride. Naphthalic anhydride was applied at a rate of 1% wt/wt basis to corn and wheat seed. Seed treatments were made as follows for evaluations of the chemical materials employed. One-hundred grams of each crop seed were placed in a separate self-closing plastic bag to which 1 gram of the chemical material was added. The bag containing the seed was tightly closed and gently agitated thereby allowing the seed to slowly come in contact with the chemical material to achieve maximal distribution on the seed surface, arriving at a uniform coverage. Treatment rate comparisons between spray application and seed treatment materials were made on the calculated area rate of naphthalic anhydride in grams active ingredient per hectare for a given crop. These rates were calculated based on a typical seeding rate per hectare used for agronomic production of a given crop. For wheat, a typical average seeding rate is 200 wheat seeds per square meter which weigh 6.8 g. For corn, a typical average seeding rate is 7.5 corn seeds per square meter which weigh 2.0 g. […] Corn treatments were replicated three times. Wheat treatments were replicated two times. […]

wheat (TRZAW) = test system: wheat (TRZAW); set-up: species or system Triticum aestivum; details: in vivo
Protocol: as §4

In the case of `CCOP(=O)(O)C(N)=O` [Fosamine-ammonium, fosamine-ammonium, reference compound], the “MXDSP Obs” value (mixed hardwoods (MXDSP)) is reported as 47 and the “QUESS Obs” value (oak species (QUESS)) is reported as 33.
For `C[n+]1ccc(-c2cc[n+](C)cc2)cc1` [Paraquat], the “CHEAL Obs” value [1] was 0%, the “TAROF Obs” value (common dandelion (TAROF); 7 DAA) was 79% and the “TAROF Obs” value (common dandelion (TAROF); 14 DAA) was 69%. The “TAROF Obs” value (common dandelion (TAROF); 23 DAA) was 61%, the “TAROF Obs” value (common dandelion (TAROF); 30 DAA) was 33% and the “TAROF Obs” value (common dandelion (TAROF); 57 DAA) was 0%. The “ZEAMD Obs” value (corn (ZEAMD) [2]) was 0%, the “ERYRE Obs” value (bushy wallflower (ERYRE); 7 DAA) was 98% and the “ERYRE Obs” value (bushy wallflower (ERYRE); 14 DAA) was 94%. The “ERYRE Obs” value (bushy wallflower (ERYRE); 23 DAA) was 98%, the “ERYRE Obs” value (bushy wallflower (ERYRE); 30 DAA) was 100% and the “ERYRE Obs” value (bushy wallflower (ERYRE); 57 DAA) was 80%. The “LAMAM Obs” value ([3]; 7 DAA) was 93%, the “LAMAM Obs” value ([3]; 14 DAA) was 84% and the “LAMAM Obs” value ([3]; 23 DAA) was 85%. The “LAMAM Obs” value ([3]; 30 DAA) was 73%, the “LAMAM Obs” value ([3]; 57 DAA) was 81% and the “SETFA Obs” value (giant foxtail (SETFA)) was 0%. The “RANAB Obs” value ([4]; 7 DAA) was 98%, the “RANAB Obs” value ([4]; 14 DAA) was 100% and the “RANAB Obs” value ([4]; 23 DAA) was 100%. The “RANAB Obs” value ([4]; 30 DAA) was 100%, the “LEPVI Obs” value ([5]; 30 DAA) was 100% and the “LEPVI Obs” value ([5]; 42 DAA) was 96%. For the same compound, the “LEPVI Obs” value ([5]; 46 DAA) was 100%, the “LAMPU Obs” value (red deadnettle (LAMPU) [6]; 30 DAA) was 100% and the “LAMPU Obs” value (red deadnettle (LAMPU) [6]; 42 DAA) was 98%. The “LAMPU Obs” value (red deadnettle (LAMPU) [6]; 46 DAA) was 100%, the “CHEAL Obs” value [7] was 0% and the “AMBTR Obs” value (giant ragweed (AMBTR); 7 DAA) was 100%. For the same compound, the “AMBTR Obs” value (giant ragweed (AMBTR); 14 DAA) was 100%, the “AMBTR Obs” value (giant ragweed (AMBTR); 57 DAA) was 70% and the “ERICA Obs” value (Canada horseweed (ERICA); 7 DAA) was 95%. The “ERICA Obs” value (Canada horseweed (ERICA); 14 DAA) was 96%, the “ERICA Obs” value (Canada horseweed (ERICA); 23 DAA) was 99% and the “ERICA Obs” value (Canada horseweed (ERICA); 30 DAA) was 100%. The “ERICA Obs” value (Canada horseweed (ERICA); 57 DAA) was 81%, the “RUMCR Obs” value (curly dock (RUMCR); 30 DAA) was 58% and the “RUMCR Obs” value (curly dock (RUMCR); 42 DAA) was 58%. For the same compound, the “RUMCR Obs” value (curly dock (RUMCR); 46 DAA) was 13%, the “RUMCR Obs” value (curly dock (RUMCR); 68 DAA) was 15% and the “LAMPU Obs” value (red deadnettle (LAMPU) [8]; 7 DAA) was 79%. The “LAMPU Obs” value (red deadnettle (LAMPU) [8]; 14 DAA) was 80%, the “LAMPU Obs” value (red deadnettle (LAMPU) [8]; 23 DAA) was 81% and the “LAMPU Obs” value (red deadnettle (LAMPU) [8]; 30 DAA) was 70%. For the same compound, the “STEME Obs” value (common chickweed (STEME) [9]; 7 DAA) was 99%, the “STEME Obs” value (common chickweed (STEME) [9]; 14 DAA) was 99% and the “STEME Obs” value (common chickweed (STEME) [9]; 23 DAA) was 100%. For the same compound, the “STEME Obs” value (common chickweed (STEME) [9]; 30 DAA) was 100%, the “STEME Obs” value (common chickweed (STEME) [9]; 57 DAA) was 98% and the “STEME Obs” value (common chickweed (STEME) [10]; 30 DAA) was 96%. For the same compound, the “STEME Obs” value (common chickweed (STEME) [10]; 42 DAA) was 97%, the “STEME Obs” value (common chickweed (STEME) [10]; 46 DAA) was 88% and the “CAPBP Obs” value (shepherd's purse (CAPBP); 7 DAA) was 89%. The “CAPBP Obs” value (shepherd's purse (CAPBP); 14 DAA) was 85%, the “CAPBP Obs” value (shepherd's purse (CAPBP); 23 DAA) was 77% and the “CAPBP Obs” value (shepherd's purse (CAPBP); 30 DAA) was 72%. For the same compound, the “CAPBP Obs” value (shepherd's purse (CAPBP); 57 DAA) was 93%, the “LACSE Obs” value (prickly lettuce (LACSE); 7 DAA) was 97% and the “LACSE Obs” value (prickly lettuce (LACSE); 14 DAA) was 95%. For the same compound, the “LACSE Obs” value (prickly lettuce (LACSE); 23 DAA) was 100%, the “LACSE Obs” value (prickly lettuce (LACSE); 30 DAA) was 100% and the “LACSE Obs” value (prickly lettuce (LACSE); 57 DAA) was 100%.
In the case of `O=C1OC(=O)c2cccc3cccc1c23` [Naphthalic anhydride], the “ZEAMD Obs” value (corn (ZEAMD) [11]) is reported as 0 and the “TRZAW Obs” value (wheat (TRZAW)) is reported as 0.

From patent publication US20100285959A1, “HERBICIDAL MIXTURES” (priority 2006, published 2010)
